PubChem BioAssay (NCI)
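Test compounds were applied to cells in 96-well plates for 48 hours at 5 doses. GI50: concentration for 50% inhibition of growth. TGI: concentration producing complete growth inhibition.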

How the values were obtained:
Assay in all cases: NCI-60 cell line screen, 48 h
SF-539 CNS = system: SF-539 CNS
SK-MEL-28 melanoma = system: SK-MEL-28 melanoma
A549 NSCLC = system: A549 NSCLC
SF-268 CNS = system: SF-268 CNS
SW-620 colon = system: SW-620 colon
HOP-92 NSCLC = system: HOP-92 NSCLC
EKVX NSCLC = system: EKVX NSCLC
NCI-H460 lung = system: NCI-H460 lung
HCT-15 colon = system: HCT-15 colon
OVCAR-3 ovarian = system: OVCAR-3 ovarian
MCF7 breast = system: MCF7 breast
SK-MEL-5 melanoma = system: SK-MEL-5 melanoma
RPMI-8226 leukemia = system: RPMI-8226 leukemia
MALME-3M melanoma = system: MALME-3M melanoma
SR leukemia = system: SR leukemia
CCRF-CEM leukemia = system: CCRF-CEM leukemia
TK-10 renal = system: TK-10 renal
HS 578T breast = system: HS 578T breast
SK-OV-3 ovarian = system: SK-OV-3 ovarian
NCI-H226 lung = system: NCI-H226 lung
OVCAR-4 ovarian = system: OVCAR-4 ovarian
OVCAR-8 ovarian = system: OVCAR-8 ovarian
COLO 205 colon = system: COLO 205 colon
SK-MEL-2 melanoma = system: SK-MEL-2 melanoma
SNB-75 CNS = system: SNB-75 CNS
HCT-116 colon = system: HCT-116 colon
MDA-MB-231 breast = system: MDA-MB-231 breast
DU-145 prostate = system: DU-145 prostate
UO-31 renal = system: UO-31 renal
A498 renal = system: A498 renal
UACC-62 melanoma = system: UACC-62 melanoma
U251 CNS = system: U251 CNS
BT-549 breast = system: BT-549 breast
MDA-MB-435 = system: MDA-MB-435
NCI/ADR-RES ovarian = system: NCI/ADR-RES ovarian
HT29 colon = system: HT29 colon
SF-295 CNS = system: SF-295 CNS
T-47D breast = system: T-47D breast
SNB-19 CNS = system: SNB-19 CNS
HOP-62 NSCLC = system: HOP-62 NSCLC
HL-60(TB) leukemia = system: HL-60(TB) leukemia
MOLT-4 leukemia = system: MOLT-4 leukemia
K-562 leukemia = system: K-562 leukemia
KM12 colon = system: KM12 colon
CAKI-1 renal = system: CAKI-1 renal
M14 melanoma = system: M14 melanoma
OVCAR-5 ovarian = system: OVCAR-5 ovarian
PC-3 prostate = system: PC-3 prostate
HCC-2998 colon = system: HCC-2998 colon
786-0 renal = system: 786-0 renal
LOX IMVI melanoma = system: LOX IMVI melanoma
RXF 393 renal = system: RXF 393 renal
NCI-H23 lung = system: NCI-H23 lung
SN12C renal = system: SN12C renal
UACC-257 melanoma = system: UACC-257 melanoma
IGROV1 ovarian = system: IGROV1 ovarian
ACHN renal = system: ACHN renal
NCI-H522 lung = system: NCI-H522 lung

With O=C(Nc1ccc([As]=[As]c2ccc(NC(=O)c3ccccc3)cc2)cc1)c1ccccc1 (stereo unspecified) the GI50 (SF-539 CNS) was 381 nM, the TGI (SF-539 CNS) was 1530 nM and the GI50 (SK-MEL-28 melanoma) was 214 nM. For the same compound, the TGI (SK-MEL-28 melanoma) was 531 nM, the GI50 (A549 NSCLC) was 1840 nM and the TGI (A549 NSCLC) was 3590 nM. It also gave a GI50 (SF-268 CNS) of 424 nM, a TGI (SF-268 CNS) of 1590 nM and a GI50 (SW-620 colon) of 227 nM. The TGI (SW-620 colon) was 740 nM, the GI50 (HOP-92 NSCLC) was 179 nM and the TGI (HOP-92 NSCLC) was 642 nM. The GI50 (EKVX NSCLC) was 1180 nM, the TGI (EKVX NSCLC) was 2640 nM and the GI50 (NCI-H460 lung) was 2030 nM. The TGI (NCI-H460 lung) was 4510 nM, the GI50 (HCT-15 colon) was 302 nM and the TGI (HCT-15 colon) was 1360 nM. For the same compound, the GI50 (OVCAR-3 ovarian) was 285 nM, the TGI (OVCAR-3 ovarian) was 812 nM and the GI50 (MCF7 breast) was 208 nM. For the same compound, the TGI (MCF7 breast) was 547 nM, the GI50 (SK-MEL-5 melanoma) was 846 nM and the TGI (SK-MEL-5 melanoma) was 2100 nM. For the same compound, the GI50 (RPMI-8226 leukemia) was 247 nM, the TGI (RPMI-8226 leukemia) was 728 nM and the GI50 (MALME-3M melanoma) was 184 nM. It also gave a TGI (MALME-3M melanoma) of 571 nM, a GI50 (SR leukemia) of 258 nM and a TGI (SR leukemia) of 751 nM. For the same compound, the GI50 (CCRF-CEM leukemia) was 136 nM, the TGI (CCRF-CEM leukemia) was 428 nM and the GI50 (TK-10 renal) was 329 nM. It also gave a TGI (TK-10 renal) of 1130 nM, a GI50 (HS 578T breast) of 478 nM and a TGI (HS 578T breast) of 6320 nM. The GI50 (SK-OV-3 ovarian) was 1900 nM, the TGI (SK-OV-3 ovarian) was 3310 nM and the GI50 (NCI-H226 lung) was 662 nM. The TGI (NCI-H226 lung) was 1640 nM, the GI50 (OVCAR-4 ovarian) was 466 nM and the TGI (OVCAR-4 ovarian) was 1810 nM. It also gave a GI50 (OVCAR-8 ovarian) of 333 nM, a TGI (OVCAR-8 ovarian) of 1220 nM and a GI50 (COLO 205 colon) of 239 nM. It also gave a TGI (COLO 205 colon) of 769 nM, a GI50 (SK-MEL-2 melanoma) of 334 nM and a TGI (SK-MEL-2 melanoma) of 1010 nM. For the same compound, the GI50 (SNB-75 CNS) was 242 nM, the TGI (SNB-75 CNS) was 1510 nM and the GI50 (HCT-116 colon) was 234 nM. For the same compound, the TGI (HCT-116 colon) was 624 nM, the GI50 (MDA-MB-231 breast) was 323 nM and the TGI (MDA-MB-231 breast) was 1330 nM. For the same compound, the GI50 (DU-145 prostate) was 1440 nM, the TGI (DU-145 prostate) was 2750 nM and the GI50 (UO-31 renal) was 975 nM. For the same compound, the TGI (UO-31 renal) was 2250 nM, the GI50 (A498 renal) was 1150 nM and the TGI (A498 renal) was 2360 nM. For the same compound, the GI50 (UACC-62 melanoma) was 313 nM, the TGI (UACC-62 melanoma) was 1280 nM and the GI50 (U251 CNS) was 255 nM. For the same compound, the TGI (U251 CNS) was 716 nM, the GI50 (BT-549 breast) was 343 nM and the TGI (BT-549 breast) was 1190 nM. For the same compound, the GI50 (MDA-MB-435) was 734 nM, the TGI (MDA-MB-435) was 2110 nM and the GI50 (NCI/ADR-RES ovarian) was 1320 nM. It also gave a TGI (NCI/ADR-RES ovarian) of 2650 nM, a GI50 (HT29 colon) of 1420 nM and a TGI (HT29 colon) of 3440 nM. For the same compound, the GI50 (SF-295 CNS) was 1510 nM, the TGI (SF-295 CNS) was 3080 nM and the GI50 (T-47D breast) was 173 nM. For the same compound, the TGI (T-47D breast) was 493 nM, the GI50 (SNB-19 CNS) was 1470 nM and the TGI (SNB-19 CNS) was 2840 nM. It also gave a GI50 (HOP-62 NSCLC) of 1240 nM, a TGI (HOP-62 NSCLC) of 2640 nM and a GI50 (HL-60(TB) leukemia) of 328 nM. For the same compound, the TGI (HL-60(TB) leukemia) was 2090 nM, the GI50 (MOLT-4 leukemia) was 339 nM and the TGI (MOLT-4 leukemia) was 1840 nM. It also gave a GI50 (K-562 leukemia) of 215 nM, a TGI (K-562 leukemia) of 560 nM and a GI50 (KM12 colon) of 1690 nM. For the same compound, the TGI (KM12 colon) was 3120 nM, the GI50 (CAKI-1 renal) was 582 nM and the TGI (CAKI-1 renal) was 1890 nM. For the same compound, the GI50 (M14 melanoma) was 1130 nM, the TGI (M14 melanoma) was 2490 nM and the GI50 (OVCAR-5 ovarian) was 1170 nM. It also gave a TGI (OVCAR-5 ovarian) of 2530 nM, a GI50 (PC-3 prostate) of 1180 nM and a TGI (PC-3 prostate) of 2460 nM. It also gave a GI50 (HCC-2998 colon) of 1240 nM, a TGI (HCC-2998 colon) of 2500 nM and a GI50 (786-0 renal) of 454 nM. For the same compound, the TGI (786-0 renal) was 1670 nM, the GI50 (LOX IMVI melanoma) was 262 nM and the TGI (LOX IMVI melanoma) was 786 nM. For the same compound, the GI50 (RXF 393 renal) was 192 nM, the TGI (RXF 393 renal) was 499 nM and the GI50 (NCI-H23 lung) was 391 nM. The TGI (NCI-H23 lung) was 1480 nM, the GI50 (SN12C renal) was 679 nM and the TGI (SN12C renal) was 1980 nM. For the same compound, the GI50 (UACC-257 melanoma) was 244 nM, the TGI (UACC-257 melanoma) was 1010 nM and the GI50 (IGROV1 ovarian) was 756 nM. The TGI (IGROV1 ovarian) was 2250 nM, the GI50 (ACHN renal) was 1190 nM and the TGI (ACHN renal) was 2450 nM. The GI50 (NCI-H522 lung) was 74.3 nM and the TGI (NCI-H522 lung) was 217 nM.
